# Reference: patent publication US4287206A, “Halogen derivatives of 8-hydroxycarboxylic acids; the processes for their preparation and medicaments in which they are present” (priority 1978, dated 1981)
# Columns and labels:
# Type in all cases: in vivo
# mice [1] = test: Motor activity in mice (activity meters with photoelectric cells); conditions: Table Ib, route not given
# Method: The motor activity was determined with the aid of activity meters having photoelectric cells (Boissier and Simon, Arch. int. Pharmacodyn. 1965, 158, 212-221). A minimum of 10 animals was always used per batch.
# The mice are placed in the activity meter just after the oral or intraperitoneal administration of the product acccording to the invention, obtained in accordance with Example I. The motor activity is measured as from the introduction into the activity meter up to the 60th minute. The counters are read after 30 minutes, then reset to 0 and read every 10 minutes for 30 minutes.
# mice [2] = test: Interaction with barbital sodium (sleep induced by barbital sodium in mice); conditions: barbital sodium 180 mg.kg^-1 i.p.
# Method: Interaction with barbital sodium
# At time 0, the mice receive, by intraperitoneal or oral administration, distilled water or the medicament according to the invention. After 30 minutes, they receive barbital sodium (180 mg.kg^-1) by intraperitoneal administration.
# mice [3] = test: Anti-apomorphine activity in mice (hypothermia caused by apomorphine)
structure (smiles),measurement,setting,value
"CC1CC(c2ccc(Cl)cc2)C(c2ccccc2)C(=O)O1 (stereo not drawn) [Example I, trans-4-(4'-chlorophenyl)-6-methyl-3-phenyl-3,4,5,6-tetrahydropyrone-2]",Number of rays passed through by mice,"mice [1]; 16 mg/kg, 30 min",565
same,Number of rays passed through by mice,"mice [1]; 32 mg/kg, 0 + 10 min",184
same,Number of rays passed through by mice,"mice [1]; 32 mg/kg, 30 + 20 min",376
same,Number of rays passed through by mice,"mice [1]; 32 mg/kg, 30 + 30 min",547
same,Number of rays passed through by mice,"mice [1]; 32 mg/kg, 30 min",560
same,% of mice which have slept,mice [2]; 2 mg/kg intraperitoneal,100%
same,Time in minutes for induction of sleep,mice [2]; 2 mg/kg intraperitoneal,27 min
same,Time in minutes of sleep,mice [2]; 2 mg/kg intraperitoneal,67 ± 16 min
same,% of mice which have slept,mice [2]; 2 mg/kg oral,83%
same,Time in minutes for induction of sleep,mice [2]; 2 mg/kg oral,25 min
same,Time in minutes of sleep,mice [2]; 2 mg/kg oral,47 ± 15 min
same,% of mice which have slept,mice [2]; 4 mg/kg intraperitoneal,83%
same,Time in minutes for induction of sleep,mice [2]; 4 mg/kg intraperitoneal,22 min
same,Time in minutes of sleep,mice [2]; 4 mg/kg intraperitoneal,37 ± 13 min
same,% of mice which have slept,mice [2]; 4 mg/kg oral,25%
same,Time in minutes for induction of sleep,mice [2]; 4 mg/kg oral,33 min
same,Time in minutes of sleep,mice [2]; 4 mg/kg oral,56 min
same,% of mice which have slept,mice [2]; 8 mg/kg intraperitoneal,83%
same,Time in minutes for induction of sleep,mice [2]; 8 mg/kg intraperitoneal,30 min
same,Time in minutes of sleep,mice [2]; 8 mg/kg intraperitoneal,25 ± 4 min
same,% of mice which have slept,mice [2]; 8 mg/kg oral,42%
same,Time in minutes for induction of sleep,mice [2]; 8 mg/kg oral,32 min
same,Time in minutes of sleep,mice [2]; 8 mg/kg oral,43 min
same,% of mice which have slept,mice [2]; 16 mg/kg intraperitoneal,33%
same,Time in minutes for induction of sleep,mice [2]; 16 mg/kg intraperitoneal,38 min
same,Time in minutes of sleep,mice [2]; 16 mg/kg intraperitoneal,14 min
same,% of mice which have slept,mice [2]; 16 mg/kg oral,0%
same,Time in minutes for induction of sleep,mice [2]; 16 mg/kg oral,0 min
same,Time in minutes of sleep,mice [2]; 16 mg/kg oral,0 min
same,% of mice which have slept,mice [2]; 32 mg/kg intraperitoneal,0%
same,Time in minutes for induction of sleep,mice [2]; 32 mg/kg intraperitoneal,0 min
same,Time in minutes of sleep,mice [2]; 32 mg/kg intraperitoneal,0 min
same,% of mice which have slept,mice [2]; 32 mg/kg oral,00%
same,Time in minutes for induction of sleep,mice [2]; 32 mg/kg oral,0 min
same,Time in minutes of sleep,mice [2]; 32 mg/kg oral,0 min
same,"Rectal temperatures, results in % inhibition of the hypothermia","mice [3]; 0.5 mg/kg intraperitoneal, apomorphine 1 mg.kg^-1 subcutaneously",7%
same,"Rectal temperatures, results in % inhibition of the hypothermia","mice [3]; 0.5 mg/kg intraperitoneal, apomorphine 16 mg.kg^-1 subcutaneously",-5%
same,"Rectal temperatures, results in % inhibition of the hypothermia","mice [3]; 2 mg/kg intraperitoneal, apomorphine 1 mg.kg^-1 subcutaneously",3%
same,"Rectal temperatures, results in % inhibition of the hypothermia","mice [3]; 2 mg/kg intraperitoneal, apomorphine 16 mg.kg^-1 subcutaneously",45%
same,"Rectal temperatures, results in % inhibition of the hypothermia","mice [3]; 4 mg/kg intraperitoneal, apomorphine 1 mg.kg^-1 subcutaneously",-13%
same,"Rectal temperatures, results in % inhibition of the hypothermia","mice [3]; 4 mg/kg intraperitoneal, apomorphine 16 mg.kg^-1 subcutaneously",39%
same,"Rectal temperatures, results in % inhibition of the hypothermia","mice [3]; 4 mg/kg oral, apomorphine 1 mg.kg^-1 subcutaneously",0%
same,"Rectal temperatures, results in % inhibition of the hypothermia","mice [3]; 4 mg/kg oral, apomorphine 16 mg.kg^-1 subcutaneously",31%
same,"Rectal temperatures, results in % inhibition of the hypothermia","mice [3]; 8 mg/kg oral, apomorphine 1 mg.kg^-1 subcutaneously",-2%
same,"Rectal temperatures, results in % inhibition of the hypothermia","mice [3]; 8 mg/kg oral, apomorphine 16 mg.kg^-1 subcutaneously",40%
same,"Rectal temperatures, results in % inhibition of the hypothermia","mice [3]; 16 mg/kg intraperitoneal, apomorphine 1 mg.kg^-1 subcutaneously",10%
same,"Rectal temperatures, results in % inhibition of the hypothermia","mice [3]; 16 mg/kg intraperitoneal, apomorphine 16 mg.kg^-1 subcutaneously",51%
same,"Rectal temperatures, results in % inhibition of the hypothermia","mice [3]; 16 mg/kg oral, apomorphine 1 mg.kg^-1 subcutaneously",0.5%
same,"Rectal temperatures, results in % inhibition of the hypothermia","mice [3]; 16 mg/kg oral, apomorphine 16 mg.kg^-1 subcutaneously",42%
same,"Rectal temperatures, results in % inhibition of the hypothermia","mice [3]; 32 mg/kg oral, apomorphine 1 mg.kg^-1 subcutaneously",45%
same,"Rectal temperatures, results in % inhibition of the hypothermia","mice [3]; 32 mg/kg oral, apomorphine 16 mg.kg^-1 subcutaneously",77%
same,"Rectal temperatures, results in % inhibition of the hypothermia","mice [3]; 64 mg/kg oral, apomorphine 1 mg.kg^-1 subcutaneously",51%
same,"Rectal temperatures, results in % inhibition of the hypothermia","mice [3]; 64 mg/kg oral, apomorphine 16 mg.kg^-1 subcutaneously",86%
same,"Rectal temperatures, results in % inhibition of the hypothermia","mice [3]; 128 mg/kg oral, apomorphine 1 mg.kg^-1 subcutaneously",68%
same,"Rectal temperatures, results in % inhibition of the hypothermia","mice [3]; 128 mg/kg oral, apomorphine 16 mg.kg^-1 subcutaneously",81%
same,"Rectal temperatures, results in % inhibition of the hypothermia","mice [3]; 256 mg/kg oral, apomorphine 1 mg.kg^-1 subcutaneously",89%
same,"Rectal temperatures, results in % inhibition of the hypothermia","mice [3]; 256 mg/kg oral, apomorphine 16 mg.kg^-1 subcutaneously",116%
